From paper PMC10086185, “Synthesis, radiolabeling, and evaluation of a (4-quinolinoyl)glycyl-2-cyanopyrrolidine analogue for fibroblast activation protein (FAP) PET imaging” (Frontiers in Bioengineering and Biotechnology, 2023) come the findings set out here.

Structures are written as SMILES.

A short description of this data set: In vitro stability in PBS saline, 20% EtOH solution and rat serum (radio-HPLC). In kind it is physicochemical. As to conditions: 4 h at 37°C. As to the method: The in vitro stability of [^18F]3 was performed in PBS saline, 20% EtOH solution, and rat serum. In general, a solution of [^18F]3 (50 µL, approximately 20 KBq) was added to the PBS saline (2 mL), 20% EtOH solution (2 mL), and rat serum (2 mL), and these solutions were suspended in a water bath under 37°C for […]. Samples from PBS saline and 20% EtOH solution were loaded into the analytical radio-HPLC for the detection of RCP at designated time points (0, 1, 2, and 4 h), with the same condition described previously. The samples from the rat serum were added the same volume of acetonitrile to deposit the plasma protein, and the supernatant obtained by centrifugation (×12,000 r/min, 5 min) was analyzed at corresponding time points.

Take `N#C[C@@H]1CC(F)(F)CN1C(=O)CNC(=O)c1ccnc2ccc([18F])cc12` [[^18F]3]: the “intact [^18F]3” value is listed as “over 90%”.
